Measurements: US8785614B2, “Aberrantly methylated genes in pancreatic cancer” (The Johns Hopkins University, priority 2003, dated 2014)
Where two headings read alike, the source gives them in different places.

How the values were obtained:
[1] = tested on: Hs766T pancreatic cancer cell line
Procedure: (§1) Mock-treated cells were cultured with the equivalent volume of PBS alone.
(§2) Total RNA was isolated from cultured cells using TRIZOL reagent (invitrogen, Carlsbad, Calif.) and purified using RNeasy Mini Kit (Qiagen, Valencia, Calif.). First- and second-stranded cDNA was synthesized from 10 μg of total RNA using 17-dT) primer (Genset Corp., La Jolla, Calif.) and Superscript Choice system (Invitrogen). Labeled cRNA was synthesized from the purified cDNA by in vitro transcription reaction using the BioArray High Yield RNA Transcript Labeling Kit (Enzo Diagnostics, Inc., Farmingdale, N.Y.) at 37° C. for 6 h. The cRNA was fragmented at 94° C. for 35 min. in a fragmentation buffer [40 mM Tris-acetate @ pH 8.1, 100 mM potassium acestate, and 30 mM magnesium acetate]. The fragmented cRNA was then hybridized to the Human Genome U133A chips (Affymetrix, Santa Clara, Calif.) with 18462 unique gene/EST transcripts at 45° C. for 16 h. The washing and staining procedure was performed in the Affymetrix Fluidics Station according to the manufacturer's instructions. The probes were then scanned using a laser scanner, and signal intensity for each transcript (background-subtracted and adjusted for noise) was calculated using Microarray Suite Software 5.0 (Affymetrix).
(§3) Fold change analysis of signal intensities obtained from oligonucleotide microarrays between the two treatment groups was performed using Data Mining software (Afrymetrix).
(§4) The global changes in gene expression proxies induced by 5Aza-dC in four pancreatic cancer cell lines (AsPCl, Hs766T, MiaPaCa2, and Panel) were determined using the Afrymetrix U133 oligonucleotide microarrays with 18462 probes sets (transcripts) covering over 13000 full-length sequences of known genes.

[2] = tested on: four pancreatic cancer cell lines (AsPC1, Hs766T, MiaPaCa2, Panc1)
Procedure: as §1, §2, §3, §4

Nc1ncn([C@H]2C[C@H](O)[C@@H](CO)O2)c(=O)n1 [5Aza-dC, 5 aza 2′ deoxycytidine]
Fold-change after 5Aza-dC treatment ([1]; ANGPT2, Hs766T): −0.44 fold | Fold-change after 5Aza-dC treatment ([1]; BARD1, Hs766T): 5.21 fold | Fold-change after 5Aza-dC treatment ([1]; BNIP3, Hs766T): −1.75 fold | Fold-change after 5Aza-dC treatment ([1]; BST2, Hs766T): 1.36 fold | Fold-change after 5Aza-dC treatment ([1]; CACNA1G, Hs766T): 0.5 fold | Fold-change after 5Aza-dC treatment ([1]; CCNE2, Hs766T): 5.28 fold | Fold-change after 5Aza-dC treatment ([1]; CDH3, Hs766T): 0.89 fold | Fold-change after 5Aza-dC treatment ([1]; CDKN1A (p21), Hs766T): 1.04 fold | Fold-change after 5Aza-dC treatment ([1]; CDKN1C, Hs766T): 5.42 fold | Fold-change after 5Aza-dC treatment ([1]; CLDN5, Hs766T): 1.21 fold | Fold-change after 5Aza-dC treatment ([1]; CSF1, Hs766T): 5.75 fold | Fold-change after 5Aza-dC treatment ([1]; DR3, Hs766T): −1.46 fold | Fold-change after 5Aza-dC treatment ([1]; FOXE1, Hs766T): 5.63 fold | Fold-change after 5Aza-dC treatment ([1]; GAGE1, Hs766T): 0.48 fold | Fold-change after 5Aza-dC treatment ([1]; GAGE3, Hs766T): −2.57 fold | Fold-change after 5Aza-dC treatment ([1]; GAGE4, Hs766T): −1.1 fold | Fold-change after 5Aza-dC treatment ([1]; GAGE6, Hs766T): 1.09 fold | Fold-change after 5Aza-dC treatment ([1]; GAGE7, Hs766T): −1.12 fold | Fold-change after 5Aza-dC treatment ([1]; HOXA1, Hs766T): −1.61 fold | transcripts with >5-fold increase, share of the 18462 transcripts analyzed ([1]; Hs766T): 0.9% | transcripts with substantial increase (>5-fold) in signal intensities ([1]; Hs766T, vs mock-treated): 167 transcripts | Fold-change after 5Aza-dC treatment ([1]; IGF2, Hs766T): −0.41 fold | Fold-change after 5Aza-dC treatment ([1]; IL1R1, Hs766T): −2.59 fold | Fold-change after 5Aza-dC treatment ([1]; ISG20, Hs766T): 1.02 fold | Fold-change after 5Aza-dC treatment ([1]; JPH3, Hs766T): 5.27 fold | Fold-change after 5Aza-dC treatment ([1]; KLK10, Hs766T): 1.16 fold | Fold-change after 5Aza-dC treatment ([1]; LDOC1, Hs766T): −1.86 fold | Fold-change after 5Aza-dC treatment ([1]; LHX1, Hs766T): 1.92 fold | Fold-change after 5Aza-dC treatment ([1]; MAGE1, Hs766T): 4.45 fold | Fold-change after 5Aza-dC treatment ([1]; MATN1, Hs766T): 6.83 fold | Fold-change after 5Aza-dC treatment ([1]; NEFH, Hs766T): −1.24 fold | Fold-change after 5Aza-dC treatment ([1]; NPTX2, Hs766T): −2.6 fold | Fold-change after 5Aza-dC treatment ([1]; PAX6, Hs766T): 1.36 fold | Fold-change after 5Aza-dC treatment ([1]; PDYN, Hs766T): 6.38 fold | Fold-change after 5Aza-dC treatment ([1]; PLAT, Hs766T): −1.73 fold | Fold-change after 5Aza-dC treatment ([1]; PLEK2, Hs766T): 1.12 fold | Fold-change after 5Aza-dC treatment ([1]; SARP2, Hs766T): 1.35 fold | Fold-change after 5Aza-dC treatment ([1]; SMARCA1, Hs766T): −0.79 fold | Fold-change after 5Aza-dC treatment ([1]; ST14, Hs766T): −4.72 fold | Fold-change after 5Aza-dC treatment ([1]; TIMP3, Hs766T): −3.67 fold | Fold-change after 5Aza-dC treatment ([1]; TJP2, Hs766T): −1.56 fold | Fold-change after 5Aza-dC treatment ([1]; TNF, Hs766T): −4.9 fold | Fold-change after 5Aza-dC treatment ([1]; UCHL1, Hs766T): 1.45 fold | Fold-change after 5Aza-dC treatment ([1]; WNT7A, Hs766T): 9.03 fold | Fold-change after 5Aza-dC treatment ([1]; XAGE-1, Hs766T): −0.5 fold | Fold-change after 5Aza-dC treatment ([1]; granulocytemacrophage colony-stimulating factor (M11734), Hs766T): 5.53 fold | Fold-change after 5Aza-dC treatment ([1]; interferon, alpha-inducible protein (NM_022873), Hs766T): −4.46 fold | Fold-change after 5Aza-dC treatment ([1]; p53-induced protein (PIGII), Hs766T): 1.04 fold | Fold-change after 5Aza-dC treatment ([1]; reprimo, Hs766T): 6.65 fold | Fold-change after 5Aza-dC treatment ([1]; stratifin (14-3-3 sigma), Hs766T): −1.64 fold | Fold-change after 5Aza-dC treatment ([1]; stromal antigen 3 (STAG5), Hs766T): 1.01 fold | Fold-change after 5Aza-dC treatment ([1]; testin, Hs766T): 1.6 fold | changes in phenotypes during the treatment period [2]: did not result in apparent changes in their phenotypes | Induced by 5Aza-dC alone? ([2]; ADM): No | Induced by 5Aza-dC alone? ([2]; ANGPT1): No | Induced by 5Aza-dC alone? ([2]; AREG): No | Induced by 5Aza-dC alone? ([2]; ATF3): No | Induced by 5Aza-dC alone? ([2]; BIK): No | Induced by 5Aza-dC alone? ([2]; BIK (Table 3)): No | Induced by 5Aza-dC alone? ([2]; BNIP3): Yes | Induced by 5Aza-dC alone? ([2]; BST2): Yes | Induced by 5Aza-dC alone? ([2]; CACNA1G): Yes | Induced by 5Aza-dC alone? ([2]; CAPN5): No | Induced by 5Aza-dC alone? ([2]; CASP5): No | Induced by 5Aza-dC alone? ([2]; CCNA1): No | Induced by 5Aza-dC alone? ([2]; CDC25A): No | Induced by 5Aza-dC alone? ([2]; CDH8): Yes | Induced by 5Aza-dC alone? ([2]; CDKN1C): Yes | Induced by 5Aza-dC alone? ([2]; CDKN2A (p16)): No | Induced by 5Aza-dC alone? ([2]; CGR11): No | Induced by 5Aza-dC alone? ([2]; CHES1): No | Induced by 5Aza-dC alone? ([2]; CHFR): No | Induced by 5Aza-dC alone? ([2]; CLDN7): No | Induced by 5Aza-dC alone? ([2]; CLDN15): No | Induced by 5Aza-dC alone? ([2]; CRIP 1): No | Induced by 5Aza-dC alone? ([2]; CRLF1): No | Induced by 5Aza-dC alone? ([2]; CSF3): No | Induced by 5Aza-dC alone? ([2]; Cdc42 effector protein 2): No | Induced by 5Aza-dC alone? ([2]; DAPK2): No | Induced by 5Aza-dC alone? ([2]; DAZL): Yes | Induced by 5Aza-dC alone? ([2]; DEAD box RNA helicase (VASA)): No | Induced by 5Aza-dC alone? ([2]; EDR1): Yes | Induced by 5Aza-dC alone? ([2]; EGR4): No | Induced by 5Aza-dC alone? ([2]; EREG): No | Induced by 5Aza-dC alone? ([2]; GADD45B): No | Induced by 5Aza-dC alone? ([2]; GAGE1): Yes | Induced by 5Aza-dC alone? ([2]; GAGE2 (Table 2)): No | Induced by 5Aza-dC alone? ([2]; GAGE2 (Table 3)): Yes | Induced by 5Aza-dC alone? ([2]; GAGE3): Yes | Induced by 5Aza-dC alone? ([2]; GAGE4): Yes | Induced by 5Aza-dC alone? ([2]; GAGE6): Yes | Induced by 5Aza-dC alone? ([2]; GAGE7B (Table 2)): Yes | Induced by 5Aza-dC alone? ([2]; GAGE7B (Table 3)): No | Induced by 5Aza-dC alone? ([2]; GAS1): No | Induced by 5Aza-dC alone? ([2]; H1 historic family, member 2 (BC002649)): No | Induced by 5Aza-dC alone? ([2]; HEP27): No | Induced by 5Aza-dC alone? ([2]; HMOX1): No | Induced by 5Aza-dC alone? ([2]; HPSE): No | Induced by 5Aza-dC alone? ([2]; HSPA1A): No | Induced by 5Aza-dC alone? ([2]; ID2): No | Induced by 5Aza-dC alone? ([2]; ING1): No | Induced by 5Aza-dC alone? ([2]; ITM3): No | Induced by 5Aza-dC alone? ([2]; KLK12): Yes | Induced by 5Aza-dC alone? ([2]; KRT17): No | Induced by 5Aza-dC alone? ([2]; LHX2): Yes | Induced by 5Aza-dC alone? ([2]; LIPC): Yes | Induced by 5Aza-dC alone? ([2]; MAGE1): Yes | Induced by 5Aza-dC alone? ([2]; MAGEC1): No | Induced by 5Aza-dC alone? ([2]; MBD1): No | Induced by 5Aza-dC alone? ([2]; MLH1): No | Induced by 5Aza-dC alone? ([2]; MMP1): No | Induced by 5Aza-dC alone? ([2]; NGFR): Yes | Induced by 5Aza-dC alone? ([2]; NK4): Yes | Induced by 5Aza-dC alone? ([2]; NOTCH3): No | Induced by 5Aza-dC alone? ([2]; P-glycoprotein (mdr1)): No | Induced by 5Aza-dC alone? ([2]; PAX6): Yes | Induced by 5Aza-dC alone? ([2]; PIG11): Yes | Induced by 5Aza-dC alone? ([2]; PRG1): No | Induced by 5Aza-dC alone? ([2]; S100A2): Yes | Induced by 5Aza-dC alone? ([2]; S100P): No | Induced by 5Aza-dC alone? ([2]; SALL1): Yes | Induced by 5Aza-dC alone? ([2]; SARP2): Yes | Induced by 5Aza-dC alone? ([2]; SGCE): No | Induced by 5Aza-dC alone? ([2]; SPANXA1): No | Induced by 5Aza-dC alone? ([2]; SPANXC): No | Induced by 5Aza-dC alone? ([2]; STAT3): No | Induced by 5Aza-dC alone? ([2]; STC1): Yes | Induced by 5Aza-dC alone? ([2]; TERT): No | Induced by 5Aza-dC alone? ([2]; UCHL1): Yes | Induced by 5Aza-dC alone? ([2]; UCPH): No | Induced by 5Aza-dC alone? ([2]; ULBP2): Yes | Induced by 5Aza-dC alone? ([2]; WISP2): No | Induced by 5Aza-dC alone? ([2]; WIT-1): Yes | Induced by 5Aza-dC alone? ([2]; WNT4): Yes | Induced by 5Aza-dC alone? ([2]; XAGE-1): Yes | Induced by 5Aza-dC alone? ([2]; activity-regulated cytoskeleton-associated protein (APC)): No | transcripts specifically up-regulated by 5Aza-dC treatment in pancreatic cancers ([2]; after excluding those reactivated in HPDE): 590 transcripts | Induced by 5Aza-dC alone? ([2]; aik3): No | Induced by 5Aza-dC alone? ([2]; basic fibroblast growth factor (FGF)): No | Induced by 5Aza-dC alone? ([2]; candidate tumor suppressor gene 21 protein (AF040708)): No | Induced by 5Aza-dC alone? ([2]; connective tissue growth factor (M92934)): No | Induced by 5Aza-dC alone? ([2]; cytovillin 2 (VIL2, ezrin)): No | Induced by 5Aza-dC alone? ([2]; hemoglobin, alpha 1 (HBAI)): Yes | genes markedly up-regulated by 5Aza-dC treatment ([2]; in one or more pancreatic cancer cell lines but not in HPDE): 475 genes | Induced by 5Aza-dC alone? ([2]; interleukin 8): No | Induced by 5Aza-dC alone? ([2]; junction adhesion molecule (AF154005)): No | Induced by 5Aza-dC alone? ([2]; matrix metalloproteinase 8 (MMP3)): No | Induced by 5Aza-dC alone? ([2]; nucleotide-binding site protein 1 (AF298547)): No | Induced by 5Aza-dC alone? ([2]; period homolog 1 (PERI)): Yes | Induced by 5Aza-dC alone? ([2]; prostate differentiation factor (AF003934)): Yes | Induced by 5Aza-dC alone? ([2]; protease inhibitor 12 (neuroserpin) (SERPINU)): No | average number of transcripts induced per cell line ([2]; range 116-251 transcripts): ~200 transcripts | Induced by 5Aza-dC alone? ([2]; synovial sarcoma, X breakpoint 1 (BC001003)): Yes | Induced by 5Aza-dC alone? ([2]; synovial sarcoma, X breakpoint 2 (AF257500)): No | Induced by 5Aza-dC alone? ([2]; tissue factor pathway inhibitor-2 (L27624)): No | Induced by 5Aza-dC alone? ([2]; transketolase-like protein (X91817)): No
